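1) Cells in 96-well plates. 2) Compound, 48 h, 5 concentrations. 3) Linear interpolation between surrounding doses. 4) Unreached endpoint = highest concentration. Abbreviation: GI50, concentration required for 50% inhibition of growth.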 Active and inactive are the calls of the source. No stated cut-off is given here; in the data, active = GI50 up to about 1.1 µM and inactive = higher. Where a SMILES comes first, the peptide text is derived from it. The star is where a group is joined. Cbz = O=C(OCc1ccccc1)*
Key:
Assay in all cases: NCI anticancer screen, dose series, 48 h
[1] = test system: Hs-578T
[2] = test system: M19-MEL
[3] = test system: LXFL 529
[4] = test system: KM-20L2
[5] = test system: DLD-1
[6] = test system: SNB-78
[7] = test system: HOP-18
[8] = test system: XF498

**Q.** Which GI50 [1] does the source give for `Clc1nc2c(C#Cc3ccccc3)ncnc2n1C1CCCCO1` (configuration not stated) here?
**A.** 24.7 µM (inactive)

**Q.** How did the GI50 [1] turn out when `CCOC(=O)c1c(CN2CCCC2)n(-c2ccccc2)c2cc(Br)c(OC)cc12` was run?
**A.** 29.9 µM (inactive)

**Q.** For `c1ccc2c(c1)CCc1c-2n(CCN2CCOCC2)c2ccccc12`, which GI50 [1] is on record?
**A.** 12.8 µM (inactive)

**Q.** How did the GI50 [1] turn out when `CN(C)/N=C1\C=C2CC[C@H](O[Si](C)(C)C(C)(C)C)[C@@]2(C)CC1` was run?
**A.** 18.1 µM (inactive)

**Q.** Which GI50 [1] does the source give for `CCOc1c(OC)cc(-c2nc3n(n2)C(=O)C(CC)S3)cc1OC` (configuration not stated) here?
**A.** > 10 µM (inactive)

**Q.** For `COc1ccc(C(=O)/C=C/c2ccc(O)c(O)c2)c(OC)c1`, which GI50 [1] is on record?
**A.** 2.19 µM (inactive)

**Q.** Which GI50 [1] does the source give for `Cc1nc2ccc(S(=O)(=O)Nc3ccccc3)cc2c(=O)n1NC(=O)CNc1ccccc1` here?
**A.** > 100 µM (inactive)

**Q.** For `COC(OC)[C@@H]1OC[C@H](n2cnc3c(N)ncnc32)[C@H]1O`, which GI50 [1] is on record?
**A.** > 100 µM (inactive)

**Q.** How did the GI50 [2] turn out when `Cc1cccc(C(C)(C)C)c1NC(=O)CCc1n[nH]c(=S)o1` was run?
**A.** > 100 µM (inactive)

**Q.** What about the GI50 [3] of the same molecule?
**A.** > 100 µM (inactive)

**Q.** What about the GI50 [4] of the same molecule?
**A.** > 100 µM (inactive)

**Q.** What about the GI50 [5] of the same molecule?
**A.** 98.4 µM (inactive)

**Q.** And the GI50 [6]?
**A.** > 100 µM (inactive)

**Q.** And the GI50 [7]?
**A.** > 100 µM (inactive)

**Q.** How did the GI50 [2] turn out when `O=c1c2cccnc2ncn1CCCN1CCOCC1` was run?
**A.** > 100 µM (inactive)

**Q.** What about the GI50 [3] of the same molecule?
**A.** > 100 µM (inactive)

**Q.** What about the GI50 [8] of the same molecule?
**A.** > 100 µM (inactive)

**Q.** What about the GI50 [4] of the same molecule?
**A.** > 100 µM (inactive)

**Q.** What about the GI50 [5] of the same molecule?
**A.** > 100 µM (inactive)

**Q.** What about the GI50 [6] of the same molecule?
**A.** > 100 µM (inactive)

**Q.** With `CNc1ncnc2c1cnn2Cc1cn(COCC(O)CO)nn1` (configuration not stated) as the molecule, how does the GI50 [1] read?
**A.** 0.149 µM (active)

**Q.** `COc1cc2c(/C=C3/C(=O)Nc4ccccc43)c(Cl)n(Cc3ccc(Cl)cc3)c2cc1C` was tested. Which GI50 [1] did it give?
**A.** 0.401 µM (active)

**Q.** Which GI50 [1] does the source give for `CC1(C)OC(=O)CC12CCN(Cc1ccccc1)CC2` here?
**A.** > 100 µM (inactive)

**Q.** `CC(C)(C)NC(=O)/C(=C\Sc1ccccc1)c1ccccc1` was tested. Which GI50 [1] did it give?
**A.** 72.1 µM (inactive)

**Q.** How did the GI50 [1] turn out when `C1=N\CCN2CCN(CC/N=C\c3ccccc3OCc3cccc(n3)COc3ccccc3/1)CC2` was run?
**A.** 1.38 µM (inactive)

**Q.** Which GI50 [1] does the source give for `COC(=O)C(CC(C)C)NC(=O)C(CCCNC(=N)N)NC(=O)OCc1ccccc1` (stereo not drawn) (Cbz-Arg-Leu-OMe; configuration not given here) here?
**A.** > 100 µM (inactive)

**Q.** `O=c1cc(-c2ccc(O)cc2)oc2cc(O[C@@H]3O[C@H](CO)[C@@H](O)[C@H](O)[C@H]3O)cc(O)c12` [APIGETRIN] was tested. Which GI50 [1] did it give?
**A.** 40 µM (inactive)

**Q.** `COc1cc(C=C2C(C)=NN(c3cccc(Cl)c3)C23SCC(=O)N3c2nc3ccccc3s2)ccc1O` (configuration not stated) was tested. Which GI50 [1] did it give?
**A.** 9.46 µM (inactive)

**Q.** How did the GI50 [3] turn out when `Cc1cccc(NC(=O)CSc2nnc(Cc3ccccc3)o2)c1` was run?
**A.** > 100 µM (inactive)

**Q.** And the GI50 [4]?
**A.** > 100 µM (inactive)

**Q.** And the GI50 [5]?
**A.** > 100 µM (inactive)

**Q.** And the GI50 [6]?
**A.** > 100 µM (inactive)

**Q.** What about the GI50 [7] of the same molecule?
**A.** > 100 µM (inactive)

**Q.** How did the GI50 [1] turn out when `CCCCn1cnc2c(SC)ncnc21` was run?
**A.** > 100 µM (inactive)

**Q.** How did the GI50 [1] turn out when `COc1cc(/C=C/C(=O)C2(C(=O)/C=C/c3cc(OC)c(OC)c(OC)c3)CCCCC2)cc(OC)c1OC` was run?
**A.** 29.6 µM (inactive)

**Q.** `CCOC(=O)Cc1csc(Nc2ccccc2[N+](=O)[O-])n1` was tested. Which GI50 [2] did it give?
**A.** > 100 µM (inactive)

**Q.** What about the GI50 [3] of the same molecule?
**A.** > 100 µM (inactive)

**Q.** What about the GI50 [4] of the same molecule?
**A.** > 100 µM (inactive)

**Q.** What about the GI50 [6] of the same molecule?
**A.** > 100 µM (inactive)

**Q.** What about the GI50 [7] of the same molecule?
**A.** > 100 µM (inactive)

**Q.** With `CC1(C)CC(=O)c2c(nc3c(ccc4ccccc43)c2-c2ccc(NC(=O)CCCC(=O)Nc3ccc(-c4c5c(nc6c4ccc4ccccc46)CC(C)(C)CC5=O)cc3)cc2)C1` as the molecule, how does the GI50 [1] read?
**A.** > 100 µM (inactive)

**Q.** How did the GI50 [1] turn out when `O=C1/C(=C2\Sc3c(ccc(Cl)c3Cl)C2=O)Sc2c1ccc(Cl)c2Cl` was run?
**A.** > 100 µM (inactive)

**Q.** Which GI50 [1] does the source give for `O=C1C(Cl)C2(CC(/C=C/c3ccccc3Cl)=NN2c2cccc(S(=O)(=O)O)c2)N1c1nc2ccccc2s1` (configuration not stated) here?
**A.** 81.8 µM (inactive)

**Q.** What does the source list for `COc1cc(-c2n[nH]cc2CCCC(=O)Nc2ccccc2[N+](=O)[O-])ccc1O`?
**A.** GI50 [3]: > 100 µM (inactive); GI50 [8]: > 100 µM (inactive); GI50 [5]: > 100 µM (inactive); GI50 [7]: > 100 µM (inactive)
